From patent US20130337070A1, “Coated Nanoparticle Therapy for Skin Cancer” (University of Central Florida Research Foundation Inc., priority 2012, published 2013) come the findings set out here.

The test system of one series is cytochrome c. The experiment in a line: Cytosolic cytochrome c, western blot. To be noted: A375; CNP 12 and 24 h; H2O2 1 h; vs mock-treated controls.
The subject of the next series is Caveolin-1. The experiment in a line: Caveolin-1 expression, western blot. To be noted: for caveolin-1 expression after pretreatment, compared to CNP treated cells: melanoma cells pretreated with N-acetyl-L-cysteine (4 h) or apocynin (1 h), then CNP. It counts as cell-based, human. Here is the method:
FIG. 6 Expression of Caveolin-1 in melanoma cells. […] H2O2 was used as a positive control and a-tubulin as a loading control. Three independent experiments were performed.

For series [1], the system named is A375 melanoma cells. As to the kind of experiment: Carbonylated proteins in cells (OxyBlot). The settings on record: A375, 150 μM CNP 4-48 h or 250 μM H2O2.
The test system of series [2] is A375 melanoma cells. As to the kind of experiment: Oxidized thiol groups (sulfenic acid), western blot. To be noted: A375, 150 μM CNP 24 h or 1 mM H2O2 2 h, vs dimedone treated controls.
Series [3] relates to A375 melanoma cells. The experiment in a line: Extracellular hydrogen peroxide (Amplex Red). It counts as cell-based, human. To be noted: A375, 1 h pre-incubation with 1 mM apocynin prior to CNP; 24 and 48 h. Here is the method:
The Amplex Red reagent (10-acetyl-3,7-dihydroxyphenoaxine), in combination with horseradish peroxidase (HRP), can be used to detect hydrogen peroxide released from cells. H2O2-mediated oxidation of the reagent results in the fluorescent product resorufin. Subconfluent A375 tumor cells were treated with 150 μM CNP or pre-incubated with 1 mM apocynin in serumfree DMEM in 96-well plates for different time points. […] Furthermore, the generation of intracellular ROS was determined using 2?,7?-Dichlorodihydrofluorescein diacetate (H2DCF-DA), a dye that diffuses across the lipid membranes into cells and is subsequently oxidized by intracellular ROS forming the highly fluorescent DCF.

Series [4] deals with A375 melanoma cells. As to the kind of experiment: Intracellular ROS (DCF fluorescence), melanoma cells. To be noted: A375, 5 μM doxorubicin, DCF over 90 min.
Series [5] has as its system human dermal fibroblasts (HDF). The experiment in a line: Intracellular ROS (DCF fluorescence), fibroblasts. The settings on record: 150 μM CNP or 5 μM doxorubicin, DCF over 90 min.
Another series relates to caspase-3. As to the kind of experiment: Caspase-3 activity assay. The class given is cell-based, human. The settings on record: melanoma cells, 100 nM staurosporine 24 h, positive control.
Series [6] has as its system human dermal fibroblasts (HDF).
Protocol: (§1) The activity of mitochondrial dehydrogenases, as indicator of cellular viability, results in the formation of a purple formazan dye. […] The medium was removed and the cells were lysed in dimethyl sulfoxide. The formazan formation was measured at 570 nm.
Series [7] has as its system human endothelial cells (HMEC-1).
Protocol: as §1

Protocol for caspase-3: Cell pellets were suspended in cell lysis buffer and incubated on ice for 45 min. The lysate was vortexed every 15 min. After centrifugation at 11000×g for 15 min, supernatants were collected and immediately measured for protein concentration and caspase activity. Briefly, cell lysates (20 μg protein) were placed in 96-well plates and then the specific caspase substrate (Ac-DEVD-AMC for caspase-3) was added. Plates were incubated at 37° C. for 1 h and caspase activity was determined by fluorescence intensity with the excitation and emission wavelengths set at 380 nm and 440 nm, respectively.

With `OO` [H2O2, hydrogen peroxide], the cytosolic cytochrome c result in the series on cytochrome c is recorded as “significant increase”. Besides, the “Cav-1 expression vs mock-treated control” value in the series with Caveolin-1 (melanoma cells, CNP for 1 h, H2O2 for 1 h and 4 h) is “completely abrogated”. Moreover, the “amount of carbonylated proteins vs mock-treated cells” value in the series with A375 melanoma cells [1] is recorded as “significantly increased”. Moreover, the “oxidized thiols (sulfenic acid)” value in the series with A375 melanoma cells [2] was “similarlevel”.
Consider `CC(=O)N[C@@H](CS)C(=O)O` [N-acetyl-L-cysteine], for which the “caveolin-1 expression after pretreatment, compared to CNP treated cells” value with Caveolin-1 was “increased caveolin-1 expression”.
`COc1cc(C(C)=O)ccc1O` [apocynin]: in the series with Caveolin-1, the “caveolin-1 expression after pretreatment, compared to CNP treated cells” value is listed as “increased caveolin-1 expression”. In the series with A375 melanoma cells [3], the “CNP mediated hydrogen peroxide generation after apocynin pre-incubation” value is on record as “downregulated”.
Consider `COc1cccc2c1C(=O)c1c(O)c3c(c(O)c1C2=O)C[C@@](O)(C(=O)CO)C[C@@H]3O[C@H]1C[C@H](N)[C@H](O)[C@H](C)O1` [doxorubicin], for which the “intracellular ROS level” value (in the series with A375 melanoma cells [4]; in [5]) was “significantly increased” throughout.
For `CN[C@@H]1C[C@H]2O[C@@](C)([C@@H]1OC)n1c3ccccc3c3c4c(c5c6ccccc6n2c5c31)C(=O)NC4` [staurosporine], the caspase-3 activity entry with caspase-3 was “increased”.
For the molecule “dextran-coated cerium oxide nanoparticles [CNP]”, the cell viability entry in series [6] and in series [7] was “not altered” throughout.
